Legend:
Assay type in all cases: in vivo
[1] = system: upland rice (Oryza sp., var. Tebonnet, RICE); assay: Post-emerge test, crop safety; details: post-emerge, 14 days after application, rating scale 0-100
How it was run: (§1)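 Herbicidal damage is scored 0 (none) to 100 (complete plant death) two weeks after a simulated field spray. Rates span 15–1000 g ai/ha, delivered in acetone at 187 l/ha. For post-emergence treatments, plants have 2–3 leaves and the spray carries 0.25% v/v non-ionic surfactant.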

[2] = system: field corn (Zea mays L., var. Dekalb 535, CORN); assay: Post-emerge test, crop safety; details: post-emerge, 14 days after application, rating scale 0-100
How it was run: as §1

[3] = system: upland rice (Oryza sp., var. Tebonnet, RICE); assay: Pre-emerge test, crop safety; details: rated 14 days after application, 0 = no damage, 100 = complete death
How it was run: as §1

[4] = system: field corn (Zea mays L., var. Dekalb 535, CORN); assay: Pre-emerge test, crop safety; details: rated 14 days after application, 0 = no damage, 100 = complete death
How it was run: as §1

[5] = system: sicklepod (Cassia obtusifolia, CASOB); assay: Post-emerge test, greenhouse herbicide activity screening; details: post-emerge, 14 days after application, rating scale 0-100
How it was run: (§2)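 Fourteen days after spraying, crop and weed injury was graded visually from 0, no effect, to 100, every plant dead. Test substances were dissolved in acetone and applied at 15–1000 g ai/ha with a flat-fan nozzle. Application was either pre-emergence, one day after sowing, or post-emergence at the 2–3 leaf stage.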

[6] = system: johnsongrass (Sorghum halepense, SORHA); assay: as above; details: post-emerge, 14 days after application, rating scale 0-100
How it was run: as §2

[7] = system: large crabgrass (Digitaria sanguinalis, DIGSA); assay: as above; details: post-emerge, 14 days after application, rating scale 0-100
How it was run: as §2

[8] = system: velvetleaf (Abutilon theophrasti, ABUTH); assay: as above; details: post-emerge, 14 days after application, rating scale 0-100
How it was run: as §2

[9] = system: redroot pigweed (Amaranthus retroflexus, AMARE); assay: as above; details: post-emerge, 14 days after application, rating scale 0-100
How it was run: as §2

[10] = system: ivyleaf morningglory (Ipomoea hederacea, IPOHE); assay: as above; details: post-emerge, 14 days after application, rating scale 0-100
How it was run: as §2

[11] = system: lambsquarters (Chenopodium album, CHEAL); assay: as above; details: post-emerge, 14 days after application, rating scale 0-100
How it was run: as §2

[12] = system: barnyardgrass (Echinochloa crus-galli, ECHCG); assay: as above; details: post-emerge, 14 days after application, rating scale 0-100
How it was run: as §2

[13] = system: green foxtail (Setaria viridis, SETVI); assay: as above; details: post-emerge, 14 days after application, rating scale 0-100
How it was run: as §2

[14] = system: sicklepod (Cassia obtusifolia, CASOB); assay: Pre-emerge test, greenhouse herbicide activity screening; details: rated 14 days after application, 0 = no damage, 100 = complete death
How it was run: as §1

[15] = system: johnsongrass (Sorghum halepense, SORHA); assay: as above; details: rated 14 days after application, 0 = no damage, 100 = complete death
How it was run: as §1

[16] = system: large crabgrass (Digitaria sanguinalis, DIGSA); assay: as above; details: rated 14 days after application, 0 = no damage, 100 = complete death
How it was run: as §1

[17] = system: velvetleaf (Abutilon theophrasti, ABUTH); assay: as above; details: rated 14 days after application, 0 = no damage, 100 = complete death
How it was run: as §1

[18] = system: ivyleaf morningglory (Ipomoea hederacea, IPOHE); assay: as above; details: rated 14 days after application, 0 = no damage, 100 = complete death
How it was run: as §1

[19] = system: lambsquarters (Chenopodium album, CHEAL); assay: as above; details: rated 14 days after application, 0 = no damage, 100 = complete death
How it was run: as §1

[20] = system: barnyardgrass (Echinochloa crus-galli, ECHCG); assay: as above; details: rated 14 days after application, 0 = no damage, 100 = complete death
How it was run: as §1

[21] = system: green foxtail (Setaria viridis, SETVI); assay: as above; details: rated 14 days after application, 0 = no damage, 100 = complete death
How it was run: as §1

[22] = system: redroot pigweed (Amaranthus retroflexus, AMARE); assay: as above; details: rated 14 days after application, 0 = no damage, 100 = complete death
How it was run: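 Sandy loam pots; pre-emerge: sown 1 d pre-spray, surface-watered after, then bottom-watered. Post-emerge: sown 8–21 d before, 2–3 leaf stage, + 0.25% v/v NIS, bottom-watered. Acetone, 187 l/ha track spray, 15–1000 g ai/ha. 0–100 injury score, day 14.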

## COc1c(Cl)cc(F)c(-n2c(=O)cc(C(F)(F)F)n(C)c2=O)c1N(C(=O)COc1ccccc1)C(=O)COc1ccccc1 [2-120]
[1]; 63 g ai/ha
  phytotoxicity rating RICE: 50
[1]; 250 g ai/ha
  phytotoxicity rating RICE: 90
[2]; 63 g ai/ha
  phytotoxicity rating CORN: 50
[2]; 250 g ai/ha
  phytotoxicity rating CORN: 70
[3]; 63 g ai/ha
  Pre-emerge phytotoxicity rating (0-100), crop damage, RICE: 80
[3]; 250 g ai/ha
  Pre-emerge phytotoxicity rating (0-100), crop damage, RICE: 95
[4]; 63 g ai/ha
  Pre-emerge phytotoxicity rating (0-100), crop damage, CORN: 0
[4]; 250 g ai/ha
  Pre-emerge phytotoxicity rating (0-100), crop damage, CORN: 90
[5]; 63 g ai/ha
  phytotoxicity rating CASOB: 40
[5]; 250 g ai/ha
  phytotoxicity rating CASOB: 30
[6]; 63 g ai/ha
  phytotoxicity rating SORHA: 40
[6]; 250 g ai/ha
  phytotoxicity rating SORHA: 50
[7]; 63 g ai/ha
  phytotoxicity rating DIGSA: 10
[7]; 250 g ai/ha
  phytotoxicity rating DIGSA: 60
[8]; 63 g ai/ha
  phytotoxicity rating ABUTH: 100
[8]; 250 g ai/ha
  phytotoxicity rating ABUTH: 100
[9]; 63 g ai/ha
  phytotoxicity rating AMARE: 90
[9]; 250 g ai/ha
  phytotoxicity rating AMARE: 100
[10]; 63 g ai/ha
  phytotoxicity rating IPOHE: 100
[10]; 250 g ai/ha
  phytotoxicity rating IPOHE: 100
[11]; 63 g ai/ha
  phytotoxicity rating CHEAL: 80
[11]; 250 g ai/ha
  phytotoxicity rating CHEAL: 80
[12]; 63 g ai/ha
  phytotoxicity rating ECHCG: 40
[12]; 250 g ai/ha
  phytotoxicity rating ECHCG: 30
[13]; 63 g ai/ha
  phytotoxicity rating SETVI: 20
[13]; 250 g ai/ha
  phytotoxicity rating SETVI: 60
[14]; 63 g ai/ha
  Pre-emerge Herbicidal Activity, phytotoxicity rating (0-100), CASOB: 40
[14]; 250 g ai/ha
  Pre-emerge Herbicidal Activity, phytotoxicity rating (0-100), CASOB: 70
[15]; 63 g ai/ha
  Pre-emerge Herbicidal Activity, phytotoxicity rating (0-100), SORHA: 50
[15]; 250 g ai/ha
  Pre-emerge Herbicidal Activity, phytotoxicity rating (0-100), SORHA: 95
[16]; 63 g ai/ha
  Pre-emerge Herbicidal Activity, phytotoxicity rating (0-100), DIGSA: 80
[16]; 250 g ai/ha
  Pre-emerge Herbicidal Activity, phytotoxicity rating (0-100), DIGSA: 100
[17]; 63 g ai/ha
  Pre-emerge Herbicidal Activity, phytotoxicity rating (0-100), ABUTH: 100
[17]; 250 g ai/ha
  Pre-emerge Herbicidal Activity, phytotoxicity rating (0-100), ABUTH: 100
[18]; 63 g ai/ha
  Pre-emerge Herbicidal Activity, phytotoxicity rating (0-100), IPOHE: 50
[18]; 250 g ai/ha
  Pre-emerge Herbicidal Activity, phytotoxicity rating (0-100), IPOHE: 80
[19]; 63 g ai/ha
  Pre-emerge Herbicidal Activity, phytotoxicity rating (0-100), CHEAL: 100
[19]; 250 g ai/ha
  Pre-emerge Herbicidal Activity, phytotoxicity rating (0-100), CHEAL: 100
[20]; 63 g ai/ha
  Pre-emerge Herbicidal Activity, phytotoxicity rating (0-100), ECHCG: 60
[20]; 250 g ai/ha
  Pre-emerge Herbicidal Activity, phytotoxicity rating (0-100), ECHCG: 90
[21]; 63 g ai/ha
  Pre-emerge Herbicidal Activity, phytotoxicity rating (0-100), SETVI: 70
[21]; 250 g ai/ha
  Pre-emerge Herbicidal Activity, phytotoxicity rating (0-100), SETVI: 100
[22]; 63 g ai/ha
  Pre-emerge Herbicidal Activity, phytotoxicity rating (0-100), AMARE: 90
[22]; 250 g ai/ha
  Pre-emerge Herbicidal Activity, phytotoxicity rating (0-100), AMARE: 100
